Consider 58 molecules from patent US20050101595A1, “N-containing cycloalkyl-substituted amino-thiazole derivatives and pharmaceutical compositions for inhibiting cell proliferation and methods for their use” (PFIZER INC., priority 2003, published 2005).

The subject of one assay is HCT-116 cell line. The assay can be described thus: Inhibition of cell growth, tetrazolium salt (MTT) assay. Particulars: HCT116 cells; compound at 250 nM; 0.25 µM. It counts as cell-based. Here is the method:
Inhibition of Cell Growth: Assessment of Cytotoxicity:
Inhibition of cell growth was measured using the tetrazolium salt assay, which is based on the ability of viable cells to reduce 3-(4,5-dimethylthiazol-2-yl)-2,5-[2H]-diphenyltetrazolium bromide (MTT) to formazan (Mossman, Journal of Immunological Methods, vol. 65 (1983), pp. 55-58). The water-insoluble purple formazan product was then detected spectrophotometrically. The HCT-116 cell line was used as a representative cancer cell line and grown in 96-well plates. Cells were plated in McCoy's 5A Medium at a volume of 135 μl/well. Plates were incubated for four hours before addition of inhibitor compounds. Different concentrations of inhibitor compounds were added in 0.5% (v/v) dimethylsulfoxide (15 μLuwell), and cells were incubated at 37° C. (5% CO2) for three to five days. At the end of the incubation, MTT was added to a final concentration of 0.2 mg/mL, and cells were incubated for 4 hours more at 37° C. After centrifugation of the plates and removal of medium, the absorbance of the formazan (solubilized in dimethylsulfoxide) was measured at 540 nm. […] All results were compared to control cells treated only with 0.5% (v/v) dimethylsulfoxide.
Consider `CC(=O)NCCNCCS(=O)(=O)N1CCC(Nc2nc(N)c(C(=O)c3c(F)cccc3F)s2)CC1` [Example S113], for which the “% Inhibition HCT116 @ 250 nM” value was determined as 51%.

Regarding `N#CCNCCS(=O)(=O)N1CCC(Nc2nc(N)c(C(=O)c3c(F)cccc3F)s2)CC1` [Example S128], the “% Inhibition HCT116 @ 250 nM” value is reported as 86%.

The assay is the same for the next values; noted with them: Homo sapiens, HCT-116, HCT116 cells; compound at 250 nM; read-out: % Inhibition HCT116 @ 250 nM.
As for `Nc1nc(NC2CCN(S(=O)(=O)CCNCc3cccc(F)c3)CC2)sc1C(=O)c1c(F)cccc1F` [Example S99], the inhibition at 0.25 µM was 43%.

As to `COc1cccc(CNCCS(=O)(=O)N2CCC(Nc3nc(N)c(C(=O)c4c(F)cccc4F)s3)CC2)c1` [Example S100], the inhibition at 0.25 µM is 38%.

On to `Cc1cccc(CNCCS(=O)(=O)N2CCC(Nc3nc(N)c(C(=O)c4c(F)cccc4F)s3)CC2)c1` [Example S101], for which the inhibition at 0.25 µM was found to be 80%.

Regarding `Nc1nc(NC2CCN(S(=O)(=O)CCNCc3ccc(F)cc3)CC2)sc1C(=O)c1c(F)cccc1F` [Example S102], the inhibition at 0.25 µM worked out at 57%.

As to `Nc1nc(NC2CCN(S(=O)(=O)CCNCc3ccc(Cl)cc3)CC2)sc1C(=O)c1c(F)cccc1F` [Example S103], the inhibition at 0.25 µM worked out at 25%.

Take `COc1ccc(CNCCS(=O)(=O)N2CCC(Nc3nc(N)c(C(=O)c4c(F)cccc4F)s3)CC2)cc1` [Example S104]: the inhibition at 0.25 µM was determined as 31%.

On to `Cc1ccc(CNCCS(=O)(=O)N2CCC(Nc3nc(N)c(C(=O)c4c(F)cccc4F)s3)CC2)cc1` [Example S105], for which the inhibition at 0.25 µM came to 33%.

Regarding `Nc1nc(NC2CCN(S(=O)(=O)CCNCC(F)(F)F)CC2)sc1C(=O)c1c(F)cccc1F` [Example S106], the inhibition at 0.25 µM amounted to 98%.

Consider `CC(C)(C)CNCCS(=O)(=O)N1CCC(Nc2nc(N)c(C(=O)c3c(F)cccc3F)s2)CC1` [Example S107], for which the inhibition at 0.25 µM is 98%.

As to `COC(CNCCS(=O)(=O)N1CCC(Nc2nc(N)c(C(=O)c3c(F)cccc3F)s2)CC1)OC` [Example S108], the inhibition at 0.25 µM came out at 16%.

For the molecule `Nc1nc(NC2CCN(S(=O)(=O)CCNCC(O)c3ccccc3)CC2)sc1C(=O)c1c(F)cccc1F` (stereo not shown) [Example S109], the inhibition at 0.25 µM amounted to 19%.

For the molecule `CC(O)CNCCS(=O)(=O)N1CCC(Nc2nc(N)c(C(=O)c3c(F)cccc3F)s2)CC1` (stereo not shown) [Example S110], the inhibition at 0.25 µM worked out at 16%.

Regarding `CC(C)CNCCS(=O)(=O)N1CCC(Nc2nc(N)c(C(=O)c3c(F)cccc3F)s2)CC1` [Example S111], the inhibition at 0.25 µM is 54%.

`Nc1nc(NC2CCN(S(=O)(=O)CCNCCNc3ccccc3)CC2)sc1C(=O)c1c(F)cccc1F` [Example S112]: the inhibition at 0.25 µM was 15%.

Take `CN(C)CCNCCS(=O)(=O)N1CCC(Nc2nc(N)c(C(=O)c3c(F)cccc3F)s2)CC1` [Example S114]: the inhibition at 0.25 µM was determined as 49%.

In the case of `Nc1nc(NC2CCN(S(=O)(=O)CCNCCO)CC2)sc1C(=O)c1c(F)cccc1F` [Example S115], the inhibition at 0.25 µM turned out to be 68%.

As to `Nc1nc(NC2CCN(S(=O)(=O)CCNCCc3ccccc3)CC2)sc1C(=O)c1c(F)cccc1F` [Example S116], the inhibition at 0.25 µM was determined as 60%.

Consider `Nc1nc(NC2CCN(S(=O)(=O)CCNCCc3ccc(O)cc3)CC2)sc1C(=O)c1c(F)cccc1F` [Example S117], for which the inhibition at 0.25 µM stood at 86%.

For `Cc1ccc(CCNCCS(=O)(=O)N2CCC(Nc3nc(N)c(C(=O)c4c(F)cccc4F)s3)CC2)cc1` [Example S118], the inhibition at 0.25 µM is 25%.

For `C#CCNCCS(=O)(=O)N1CCC(Nc2nc(N)c(C(=O)c3c(F)cccc3F)s2)CC1` [Example S119], the inhibition at 0.25 µM stood at 20%.

For the molecule `C=CCNCCS(=O)(=O)N1CCC(Nc2nc(N)c(C(=O)c3c(F)cccc3F)s2)CC1` [Example S120], the inhibition at 0.25 µM is 17%.

Turning to `CC(C)(C)CCNCCS(=O)(=O)N1CCC(Nc2nc(N)c(C(=O)c3c(F)cccc3F)s2)CC1` [Example S121], the inhibition at 0.25 µM was 20%.

On to `CC(C)CCNCCS(=O)(=O)N1CCC(Nc2nc(N)c(C(=O)c3c(F)cccc3F)s2)CC1` [Example S122], for which the inhibition at 0.25 µM came out at 54%.

`CC(C)OCCCNCCS(=O)(=O)N1CCC(Nc2nc(N)c(C(=O)c3c(F)cccc3F)s2)CC1` [Example S123]: the inhibition at 0.25 µM worked out at 15%.

For the molecule `Nc1nc(NC2CCN(S(=O)(=O)CCNCc3ccc(F)cc3F)CC2)sc1C(=O)c1c(F)cccc1F` [Example S124], the inhibition at 0.25 µM was found to be 51%.

Take `Nc1nc(NC2CCN(S(=O)(=O)CCNCc3cc(F)ccc3F)CC2)sc1C(=O)c1c(F)cccc1F` [Example S125]: the inhibition at 0.25 µM came to 49%.

In the case of `Nc1nc(NC2CCN(S(=O)(=O)CCNCc3c(F)cccc3F)CC2)sc1C(=O)c1c(F)cccc1F` [Example S126], the inhibition at 0.25 µM amounted to 68%.

For the molecule `Nc1nc(NC2CCN(S(=O)(=O)CCNCc3ccc(F)c(F)c3)CC2)sc1C(=O)c1c(F)cccc1F` [Example S127], the inhibition at 0.25 µM came to 60%.

Regarding `COC(=O)CNCCS(=O)(=O)N1CCC(Nc2nc(N)c(C(=O)c3c(F)cccc3F)s2)CC1` [Example S129], the inhibition at 0.25 µM was found to be 25%.

As for `CC(CN(C)C)NCCS(=O)(=O)N1CCC(Nc2nc(N)c(C(=O)c3c(F)cccc3F)s2)CC1` (stereo not shown) [Example S130], the inhibition at 0.25 µM came out at 20%.

Turning to `CC(CNCCS(=O)(=O)N1CCC(Nc2nc(N)c(C(=O)c3c(F)cccc3F)s2)CC1)N(C)C` (stereo not shown) [Example S131], the inhibition at 0.25 µM came to 17%.

As for `N#CCCNCCS(=O)(=O)N1CCC(Nc2nc(N)c(C(=O)c3c(F)cccc3F)s2)CC1` [Example S132], the inhibition at 0.25 µM is 20%.

In the case of `CSCCNCCS(=O)(=O)N1CCC(Nc2nc(N)c(C(=O)c3c(F)cccc3F)s2)CC1` [Example S133], the inhibition at 0.25 µM came to 18%.

`CC(C)N(CCNCCS(=O)(=O)N1CCC(Nc2nc(N)c(C(=O)c3c(F)cccc3F)s2)CC1)C(C)C` [Example S134]: the inhibition at 0.25 µM was 17%.

Turning to `CC(C)C(NCCS(=O)(=O)N1CCC(Nc2nc(N)c(C(=O)c3c(F)cccc3F)s2)CC1)C(C)C` [Example S135], the inhibition at 0.25 µM was determined as 100%.

`CC1CC(NCCS(=O)(=O)N2CCC(Nc3nc(N)c(C(=O)c4c(F)cccc4F)s3)CC2)CC(C)(C)C1` (stereo not shown) [Example S136]: the inhibition at 0.25 µM was 81%.

`Cc1ccc(CNCCS(=O)(=O)N2CCC(Nc3nc(N)c(C(=O)c4c(F)cccc4F)s3)CC2)c(C)c1` [Example S137]: the inhibition at 0.25 µM was 43%.

As to `CC(C)c1ccc(CNCCS(=O)(=O)N2CCC(Nc3nc(N)c(C(=O)c4c(F)cccc4F)s3)CC2)cc1` [Example S138], the inhibition at 0.25 µM is 22%.

In the case of `Nc1nc(NC2CCN(S(=O)(=O)CCNCC3CC3)CC2)sc1C(=O)c1c(F)cccc1F` [Example S139], the inhibition at 0.25 µM amounted to 39%.

For `Nc1nc(NC2CCN(S(=O)(=O)CCNCCc3ccncc3)CC2)sc1C(=O)c1c(F)cccc1F` [Example S140], the inhibition at 0.25 µM was determined as 25%.

Turning to `CCC(NCCS(=O)(=O)N1CCC(Nc2nc(N)c(C(=O)c3c(F)cccc3F)s2)CC1)c1ccccc1` (stereo not shown) [Example S141], the inhibition at 0.25 µM worked out at 78%.

As to `Nc1nc(NC2CCN(S(=O)(=O)CCNCc3cccc(Cl)c3)CC2)sc1C(=O)c1c(F)cccc1F` [Example S142], the inhibition at 0.25 µM was 80%.

Consider `Cc1cc(C)cc(CNCCS(=O)(=O)N2CCC(Nc3nc(N)c(C(=O)c4c(F)cccc4F)s3)CC2)c1` [Example S143], for which the inhibition at 0.25 µM was determined as 55%.

Regarding `CC(NCCS(=O)(=O)N1CCC(Nc2nc(N)c(C(=O)c3c(F)cccc3F)s2)CC1)c1ccc(F)cc1` (stereo not shown) [Example S144], the inhibition at 0.25 µM amounted to 43%.

Take `CCCC(C)(C)NCCS(=O)(=O)N1CCC(Nc2nc(N)c(C(=O)c3c(F)cccc3F)s2)CC1` [Example S145]: the inhibition at 0.25 µM came out at 96%.

Consider `CCC(COC)NCCS(=O)(=O)N1CCC(Nc2nc(N)c(C(=O)c3c(F)cccc3F)s2)CC1` (stereo not shown) [Example S146], for which the inhibition at 0.25 µM is 42%.

For `Nc1nc(NC2CCN(S(=O)(=O)CCNCCOCCO)CC2)sc1C(=O)c1c(F)cccc1F` [Example S147], the inhibition at 0.25 µM was 23%.

In the case of `Nc1nc(NC2CCN(S(=O)(=O)CCNCCc3cccs3)CC2)sc1C(=O)c1c(F)cccc1F` [Example S148], the inhibition at 0.25 µM is 34%.

Consider `Nc1nc(NC2CCN(S(=O)(=O)CCNCCOc3ccccc3)CC2)sc1C(=O)c1c(F)cccc1F` [Example S149], for which the inhibition at 0.25 µM was 36%.

Take `Nc1nc(NC2CCN(S(=O)(=O)CCNC3c4ccccc4CC3O)CC2)sc1C(=O)c1c(F)cccc1F` (stereo not shown) [Example S150]: the inhibition at 0.25 µM stood at 33%.

As to `C=C(C)CNCCS(=O)(=O)N1CCC(Nc2nc(N)c(C(=O)c3c(F)cccc3F)s2)CC1` [Example S151], the inhibition at 0.25 µM came to 50%.

As for `Nc1nc(NC2CCN(S(=O)(=O)CCNC3CCSC3=O)CC2)sc1C(=O)c1c(F)cccc1F` (stereo not shown) [Example S152], the inhibition at 0.25 µM came to 95%.

With `Nc1nc(NC2CCN(S(=O)(=O)CCN[C@H]3CCOC3=O)CC2)sc1C(=O)c1c(F)cccc1F` [Example S153], the inhibition at 0.25 µM came to 100%.

`Nc1nc(NC2CCN(S(=O)(=O)CCNCc3cc(F)cc(F)c3)CC2)sc1C(=O)c1c(F)cccc1F` [Example S154]: the inhibition at 0.25 µM stood at 31%.

For the molecule `COC(=O)[C@@H](C)NCCS(=O)(=O)N1CCC(Nc2nc(N)c(C(=O)c3c(F)cccc3F)s2)CC1` [Example S155], the inhibition at 0.25 µM turned out to be 96%.

For the molecule `CC(C)[C@@H](CO)NCCS(=O)(=O)N1CCC(Nc2nc(N)c(C(=O)c3c(F)cccc3F)s2)CC1` [Example S156], the inhibition at 0.25 µM came out at 17%.
